# Laboratory results: publication PMC10945555, “Improving Activity of New Arylurea Agents against Multidrug-Resistant and Biofilm-Producing Staphylococcus epidermidis” (ACS Medicinal Chemistry Letters, 2024)
# Like-named read-outs stand apart in the source and are kept apart here.
# Assays:
# Format in all cases: cell-based
# [1] = system: Staphylococcus epidermidis ATCC 35984; test: MIC, broth microdilution, MDR/BPSE reference strain
# Outline: (§1)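 Compounds tested as free bases dissolved in DMSO (1 mg/mL stock); determinations done twice; linezolid as positive control.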
# [2] = system: clinical MDR Staphylococcus epidermidis isolates; test: MIC, broth microdilution, 81 clinical MDR strains; conditions: Staphylococcus epidermidis
# Outline: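 MICs were determined by twofold broth microdilution in cation-adjusted Mueller-Hinton II broth per EUCAST, over 50–0.1 µg/mL, in duplicate. Compounds were tested as free bases dissolved in DMSO; MIC50 and MIC90 were derived across the 81 clinical MDR S. epidermidis strains.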
# [3] = system: Staphylococcus aureus ATCC BAA-976; test: MIC, broth microdilution, MDR/BPSA reference strain; conditions: ATCCBAA976; Staphylococcus aureus ATCC BAA-976; read-out: MIC MDR/BPSA
# Outline: as §1
compound,measurement,setting,value
O=S(=O)(NC1CCN(CCC(Oc2ccc(C(F)(F)F)cc2)c2ccccc2)CC1)c1cccc(Cl)c1 (stereo not drawn) [Compound 12],increase of activity against MDR/BPSE compared to hit I,[1],up to 8 fold
same,MIC,"[1]; Staphylococcus epidermidis, ATCC35984, read-out: MIC MDR/BPSE, Staphylococcus epidermidis ATCC 35984",≤ 0.8 µg/mL
same,MIC,"[2]; clinical strain 1 (Table S2), read-out: MIC",0.2 µg/mL
same,MIC,"[2]; clinical strain 2 (Table S2), read-out: MIC",1.6 µg/mL
same,MIC,"[2]; clinical strain 3 (Table S2), read-out: MIC",0.8 µg/mL
same,MIC,"[2]; clinical strain 4 (Table S2), read-out: MIC",0.8 µg/mL
same,MIC,"[2]; clinical strain 5 (Table S2), read-out: MIC",1.6 µg/mL
same,MIC,"[2]; clinical strain 6 (Table S2), read-out: MIC",3.12 µg/mL
same,MIC,"[2]; clinical strain 7 (Table S2), read-out: MIC",6.25 µg/mL
same,MIC,"[2]; clinical strain 8 (Table S2), read-out: MIC",1.6 µg/mL
same,MIC,"[2]; clinical strain 9 (Table S2), read-out: MIC",3.12 µg/mL
same,MIC,"[2]; clinical strain 10 (Table S2), read-out: MIC",6.25 µg/mL
same,MIC,"[2]; clinical strain 11 (Table S2), read-out: MIC",6.25 µg/mL
same,MIC,"[2]; clinical strain 12 (Table S2), read-out: MIC",6.25 µg/mL
same,MIC,"[2]; clinical strain 13 (Table S2), read-out: MIC",6.25 µg/mL
same,MIC,"[2]; clinical strain 14 (Table S2), read-out: MIC",50 µg/mL
same,MIC,"[2]; clinical strain 15 (Table S2), read-out: MIC",3.12 µg/mL
same,MIC,"[2]; clinical strain 16 (Table S2), read-out: MIC",3.12 µg/mL
same,MIC,"[2]; clinical strain 17 (Table S2), read-out: MIC",3.12 µg/mL
same,MIC,"[2]; clinical strain 18 (Table S2), read-out: MIC",3.12 µg/mL
same,MIC,"[2]; clinical strain 19 (Table S2), read-out: MIC",3.12 µg/mL
same,MIC,"[2]; clinical strain 20 (Table S2), read-out: MIC",6.25 µg/mL
same,MIC,"[2]; clinical strain 21 (Table S2), read-out: MIC",6.25 µg/mL
same,MIC,"[2]; clinical strain 22 (Table S2), read-out: MIC",12.5 µg/mL
same,MIC,"[2]; clinical strain 23 (Table S2), read-out: MIC",12.5 µg/mL
same,MIC,"[2]; clinical strain 24 (Table S2), read-out: MIC",12.5 µg/mL
same,MIC,"[2]; clinical strain 25 (Table S2), read-out: MIC",12.5 µg/mL
same,MIC,"[2]; clinical strain 26 (Table S2), read-out: MIC",12.5 µg/mL
same,MIC,"[2]; clinical strain 27 (Table S2), read-out: MIC",25 µg/mL
same,MIC,"[2]; clinical strain 28 (Table S2), read-out: MIC",12.5 µg/mL
same,MIC,"[2]; clinical strain 29 (Table S2), read-out: MIC",12.5 µg/mL
same,MIC,"[2]; clinical strain 30 (Table S2), read-out: MIC",25 µg/mL
same,MIC,"[2]; clinical strain 31 (Table S2), read-out: MIC",50 µg/mL
same,MIC,"[2]; clinical strain 32 (Table S2), read-out: MIC",50 µg/mL
same,MIC,"[2]; clinical strain 33 (Table S2), read-out: MIC",25 µg/mL
same,MIC,"[2]; clinical strain 34 (Table S2), read-out: MIC",50 µg/mL
same,MIC,"[2]; clinical strain 35 (Table S2), read-out: MIC",50 µg/mL
same,MIC,"[2]; clinical strain 36 (Table S2), read-out: MIC",50 µg/mL
same,MIC,"[2]; clinical strain 37 (Table S2), read-out: MIC",50 µg/mL
same,MIC,"[2]; clinical strain 38 (Table S2), read-out: MIC",50 µg/mL
same,MIC,"[2]; clinical strain 39 (Table S2), read-out: MIC",50 µg/mL
same,MIC,"[2]; clinical strain 40 (Table S2), read-out: MIC",50 µg/mL
same,MIC,"[2]; clinical strain 41 (Table S2), read-out: MIC",12.5 µg/mL
same,MIC,"[2]; clinical strain 42 (Table S2), read-out: MIC",50 µg/mL
same,MIC,"[2]; clinical strain 43 (Table S2), read-out: MIC",25 µg/mL
same,MIC,"[2]; clinical strain 44 (Table S2), read-out: MIC",50 µg/mL
same,MIC,"[2]; clinical strain 45 (Table S2), read-out: MIC",50 µg/mL
same,MIC,"[2]; clinical strain 46 (Table S2), read-out: MIC",50 µg/mL
same,MIC,"[2]; clinical strain 47 (Table S2), read-out: MIC",50 µg/mL
same,MIC,"[2]; clinical strain 48 (Table S2), read-out: MIC",3.12 µg/mL
same,MIC,"[2]; clinical strain 49 (Table S2), read-out: MIC",0.1 µg/mL
same,MIC,"[2]; clinical strain 50 (Table S2), read-out: MIC",50 µg/mL
same,MIC,"[2]; clinical strain 51 (Table S2), read-out: MIC",50 µg/mL
same,MIC,"[2]; clinical strain 52 (Table S2), read-out: MIC",3.12 µg/mL
same,MIC,"[2]; clinical strain 53 (Table S2), read-out: MIC",6.25 µg/mL
same,MIC,"[2]; clinical strain 54 (Table S2), read-out: MIC",50 µg/mL
same,MIC,"[2]; clinical strain 55 (Table S2), read-out: MIC",6.25 µg/mL
same,MIC,"[2]; clinical strain 56 (Table S2), read-out: MIC",3.12 µg/mL
same,MIC,"[2]; clinical strain 57 (Table S2), read-out: MIC",50 µg/mL
same,MIC,"[2]; clinical strain 58 (Table S2), read-out: MIC",3.12 µg/mL
same,MIC,"[2]; clinical strain 59 (Table S2), read-out: MIC",50 µg/mL
same,MIC,"[2]; clinical strain 60 (Table S2), read-out: MIC",3.12 µg/mL
same,MIC,"[2]; clinical strain 61 (Table S2), read-out: MIC",50 µg/mL
same,MIC,"[2]; clinical strain 62 (Table S2), read-out: MIC",6.25 µg/mL
same,MIC,"[2]; clinical strain 63 (Table S2), read-out: MIC",1.6 µg/mL
same,MIC,"[2]; clinical strain 64 (Table S2), read-out: MIC",3.12 µg/mL
same,MIC,"[2]; clinical strain 65 (Table S2), read-out: MIC",3.12 µg/mL
same,MIC,"[2]; clinical strain 66 (Table S2), read-out: MIC",50 µg/mL
same,MIC,"[2]; clinical strain 67 (Table S2), read-out: MIC",50 µg/mL
same,MIC,"[2]; clinical strain 68 (Table S2), read-out: MIC",50 µg/mL
same,MIC,"[2]; clinical strain 69 (Table S2), read-out: MIC",1.6 µg/mL
same,MIC,"[2]; clinical strain 70 (Table S2), read-out: MIC",50 µg/mL
same,MIC,"[2]; clinical strain 71 (Table S2), read-out: MIC",50 µg/mL
same,MIC,"[2]; clinical strain 72 (Table S2), read-out: MIC",3.12 µg/mL
same,MIC,"[2]; clinical strain 73 (Table S2), read-out: MIC",0.8 µg/mL
same,MIC,"[2]; clinical strain 74 (Table S2), read-out: MIC",50 µg/mL
same,MIC,"[2]; clinical strain 75 (Table S2), read-out: MIC",6.25 µg/mL
same,MIC,"[2]; clinical strain 76 (Table S2), read-out: MIC",0.8 µg/mL
same,MIC,"[2]; clinical strain 77 (Table S2), read-out: MIC",3.12 µg/mL
same,MIC,"[2]; clinical strain 78 (Table S2), read-out: MIC",6.25 µg/mL
same,MIC,"[2]; clinical strain 79 (Table S2), read-out: MIC",3.12 µg/mL
same,MIC,"[2]; clinical strain 80 (Table S2), read-out: MIC",12.5 µg/mL
same,MIC,"[2]; clinical strain 81 (Table S2), read-out: MIC",6.25 µg/mL
same,MIC,"[2]; mean of MIC values against clinical MDR-SE isolates, read-out: mean MIC",20.4 µg/mL
same,MIC50,"[2]; 81 clinical strains, concentration inhibiting growth of 50% clinical isolates",6.25 µg/mL
same,MIC90,"[2]; 81 clinical strains, concentration inhibiting growth of 90% of clinical isolates",50 µg/mL
same,MIC,[3],50 µg/mL
